Test system: 171881-019-R-J1-PDC tumor spheroids, viability
Assay: Anticancer human tumor 171881-019-R-J1-PDC patient-derived invasive breast carcinoma cell line growth inhibition [GQUAD]
Conditions: spheroids with HUVEC and MSC; for IC50: curve of first compound; for viability, T/C: stronger effect = lower value
Excerpt: DNA G-quadruplex Stabilizer Agents in Combinations in Complex Spheroids
A high-throughput screen of multi-cell type tumor spheroids was designed to identify active combinations of DNA G-quadruplex stabilizer agents and targeted small molecules. Complex spheroids include a stromal component modeled by human endothelial cells (HUVEC) and fibroblasts modeled by human mesenchymal stem cells (MSCs). The concentration ranges selected for each drug and investigational agent were based upon clinically achievable concentrations if the clinical Cmax of the agent was known.
Compounds. The drugs and investigational agents: pidnarulex (CX-5461; NSC782164), APTO-253 (NSC789042), BRACO-19 (NSC847499), peposertib (NSC802822), ceralasertib (NSC780249), elimusertib (NSC800525), camonsertib (NSC841442), AZD-1390 (NSC803789), olaparib (NSC753686), talazoparib (NSC767125), ART-558 (NSC835418), sotorasib (NSC818433), MRTX-1133 (NSC836407), SN-38 (NSC673596), topotecan (NSC609699), etoposide (NSC141540), doxorubicin (NSC123127), gemcitabine (NSC613327), 5-fluorouracil (NSC19893), paclitaxel (NSC125973), vemurafenib (NSC761431), panobinostat (NSC761190), R-306465 (JNJ-16241199; NSC773264), adavosertib (NSC754352), TP-3654 (NSC805149), carboplatin (NSC241240), KSQ-4279 (NSC840948), and staurosporine (NSC755774) were obtained from the National Cancer Institute (NCI) Developmental Therapeutics Program Chemical Repository (34). The FDA-approved anticancer drug set is available from the NCI Developmental Therapeutics Program. […] The stock solutions were prepared in dimethyl sulfoxide (DMSO, Sigma-Aldrich, St. Louis, MO, cat. D2650) at 800-fold the tested concentration and stored at -70 degrees C prior to their use. All drugs and investigational agents were tested over a range starting from a high concentration at or near the clinical Cmax and decreasing in half-log increments. If the clinical Cmax for an agent had not been determined, the highest concentration tested was 10 microM.
2.3 Cell Culture. All cells were maintained in an incubator at 37 degrees C and 5% CO2 with 95% humidity. The PDC lines were cultured according to standard operating procedures established by the NCI PDMR. All PDCs were thawed and cultured in Matrigel-coated flasks prepared with a working solution of 1X Ham's F-12 nutrient mix, without supplementation (Invitrogen, cat. 11765054), 100 U/mL penicillin-streptomycin (Invitrogen, cat. 15140122), and 2.5% Matrigel (Corning Inc., cat. 354248) for the first three passages. The 857933-349-R-J2-PDC line was cultured in 6C/Colon 1B media, which includes advanced DMEM/F-12 (Thermo Fisher Scientific, cat. 12634028), 10 mM HEPES (Thermo Fisher Scientific, cat. 15630080), 1X GlutaMAX supplement (Thermo Fisher Scientific, cat. 35050061), 0.1 mg/mL primocin (InvivoGen, cat. ant-pm-2), 10% defined fetal bovine serum, heat inactivated (HyClone Laboratories Inc., cat. SH30070.03HI), 50% L-WRN conditioned media (ATCC, cat. CRL-3276), 1.25 mM N-Acetyl-L-cysteine (Sigma-Aldrich, cat. A9165), 10 mM nicotinamide (Sigma-Aldrich, cat. N0636), 1X B-27 supplement (Thermo Fisher Scientific, cat. 17504044), 1X N-2 supplement (Thermo Fisher Scientific, cat. 17502048), 10 microM Y-27632 dihydrochloride (Tocris Bioscience, cat. 1254), and 50 ng/mL human EGF recombinant protein (Thermo Fisher Scientific, cat. PHG0311). The 485176-168-R4-J1-PDC line was cultured in Panc media, which includes all 6C/Colon 1B media components plus 100 ng/mL human FGF-10 (Thermo Fisher Scientific, cat. 100-26), 500 nM SB-431542 (Selleckchem, cat. S1067), and gastrin (Tocris, cat. 3006).
[…]

[1] = second compound 0.0316 µM, first compound 0.0316 µM
[2] = second compound 0.0316 µM, first compound 0.1 µM
[3] = second compound 0.0316 µM, first compound 0.316 µM
[4] = second compound 0.0316 µM, first compound 1 µM
[5] = second compound 0.0316 µM, first compound 3.16 µM
[6] = second compound 0.0316 µM, first compound 10 µM
[7] = second compound 0.1 µM, first compound 0.0316 µM
[8] = second compound 0.1 µM, first compound 0.1 µM
[9] = second compound 0.1 µM, first compound 0.316 µM
[10] = second compound 0.1 µM, first compound 1 µM
[11] = second compound 0.1 µM, first compound 3.16 µM
[12] = second compound 0.1 µM, first compound 10 µM
[13] = second compound 0.316 µM, first compound 0.0316 µM
[14] = second compound 0.316 µM, first compound 0.1 µM
[15] = second compound 0.316 µM, first compound 0.316 µM
[16] = second compound 0.316 µM, first compound 1 µM
[17] = second compound 0.316 µM, first compound 3.16 µM
[18] = second compound 0.316 µM, first compound 10 µM
[19] = second compound 1 µM, first compound 0.0316 µM
[20] = second compound 1 µM, first compound 0.1 µM
[21] = second compound 1 µM, first compound 0.316 µM
[22] = second compound 1 µM, first compound 1 µM
[23] = second compound 1 µM, first compound 3.16 µM
[24] = second compound 1 µM, first compound 10 µM
[25] = second compound 3.16 µM, first compound 0.0316 µM
[26] = second compound 3.16 µM, first compound 0.1 µM
[27] = second compound 3.16 µM, first compound 0.316 µM
[28] = second compound 3.16 µM, first compound 1 µM
[29] = second compound 3.16 µM, first compound 3.16 µM
[30] = second compound 3.16 µM, first compound 10 µM
[31] = second compound 10 µM, first compound 0.0316 µM
[32] = second compound 10 µM, first compound 0.1 µM
[33] = second compound 10 µM, first compound 0.316 µM
[34] = second compound 10 µM, first compound 1 µM
[35] = second compound 10 µM, first compound 3.16 µM
[36] = second compound 10 µM, first compound 10 µM
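Further: spheroids exposed to compounds for 7 days.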
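Wherever viability, T/C is given: 100% = DMSO vehicle control viability.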

Work on COc1cccc2c1C(=O)c1c(O)c3c(c(O)c1C2=O)CC(O)(C(=O)CO)CC3OC1CC(N)C(O)C(C)O1 (centres undefined) + CN(C)c1ccc(Nc2c3ccc(NC(=O)CCN4CCCC4)cc3nc3cc(NC(=O)CCN4CCCC4)ccc23)cc1 yielded an IC50 (second compound 0.0316 µM) of 261 nM, an IC50 (second compound 0.1 µM) of 263 nM and an IC50 (second compound 0.316 µM) of 229 nM. For the same molecule, the IC50 (second compound 1 µM) was < 31.6 nM, the IC50 (second compound 3.16 µM) was < 31.6 nM and the IC50 (second compound 10 µM) was < 31.6 nM. The viability, T/C [1] was 93.9%, the viability, T/C [2] was 66.6% and the viability, T/C [3] was 51.4%. It also gave a viability, T/C [4] of 19.9%, a viability, T/C [5] of 0.2% and a viability, T/C [6] of 0.24%. The viability, T/C [7] was 109%, the viability, T/C [8] was 68.2% and the viability, T/C [9] was 54.4%. The viability, T/C [10] was 20.2%, the viability, T/C [11] was 0.28% and the viability, T/C [12] was 0.36%. It also gave a viability, T/C [13] of 70.2%, a viability, T/C [14] of 55.2% and a viability, T/C [15] of 47.6%. For the same molecule, the viability, T/C [16] was 10.7%, the viability, T/C [17] was 0.27% and the viability, T/C [18] was 0.33%. For the same molecule, the viability, T/C [19] was 11.5%, the viability, T/C [20] was 11.2% and the viability, T/C [21] was 7.77%. The viability, T/C [22] was 2.02%, the viability, T/C [23] was 0.44% and the viability, T/C [24] was 0.64%. The viability, T/C [25] was 1.52%, the viability, T/C [26] was 2.29% and the viability, T/C [27] was 1.63%. The viability, T/C [28] was 0.4%, the viability, T/C [29] was 0.14% and the viability, T/C [30] was 0.51%. It also gave a viability, T/C [31] of 0.38%, a viability, T/C [32] of 0.25% and a viability, T/C [33] of 0.32%. The viability, T/C [34] was 0.18%, the viability, T/C [35] was 0.29% and the viability, T/C [36] was 0.26%.

For O=C(c1cc(Cc2n[nH]c(=O)c3ccccc23)ccc1F)N1CCN(C(=O)C2CC2)CC1 + Cc1cnc(CNC(=O)c2c(=O)c3ccc(N4CCCN(C)CC4)nc3n3c2sc2ccccc23)cn1, the IC50 (second compound 0.0316 µM) was > 10000 nM, the IC50 (second compound 0.1 µM) was > 10000 nM and the IC50 (second compound 0.316 µM) was > 10000 nM. The IC50 (second compound 1 µM) was > 10000 nM, the IC50 (second compound 3.16 µM) was > 10000 nM and the IC50 (second compound 10 µM) was > 10000 nM. The viability, T/C [1] was 97.3%, the viability, T/C [2] was 93.3% and the viability, T/C [3] was 87%. For the same molecule, the viability, T/C [4] was 87.1%, the viability, T/C [5] was 80.9% and the viability, T/C [6] was 75.1%. The viability, T/C [7] was 79.9%, the viability, T/C [8] was 82.7% and the viability, T/C [9] was 76.3%. For the same molecule, the viability, T/C [10] was 68.4%, the viability, T/C [11] was 64.1% and the viability, T/C [12] was 62%. It also gave a viability, T/C [13] of 70.1%, a viability, T/C [14] of 69.8% and a viability, T/C [15] of 71.3%. It also gave a viability, T/C [16] of 65%, a viability, T/C [17] of 67.8% and a viability, T/C [18] of 58.2%. The viability, T/C [19] was 66.6%, the viability, T/C [20] was 61.5% and the viability, T/C [21] was 68.9%. The viability, T/C [22] was 58.6%, the viability, T/C [23] was 64.1% and the viability, T/C [24] was 57.8%. The viability, T/C [25] was 59.4%, the viability, T/C [26] was 55.4% and the viability, T/C [27] was 64.6%. The viability, T/C [28] was 56.5%, the viability, T/C [29] was 55.3% and the viability, T/C [30] was 55.7%. It also gave a viability, T/C [31] of 54.3%, a viability, T/C [32] of 60.4% and a viability, T/C [33] of 57.9%. For the same molecule, the viability, T/C [34] was 55.5%, the viability, T/C [35] was 59.3% and the viability, T/C [36] was 55.4%.
